# ChEMBL document CHEMBL5038660, “Computational and Structure-Based Development of High Potent Cell-Active Covalent Inhibitor Targeting the Peptidyl-Prolyl Isomerase NIMA-Interacting-1 (Pin1)” (J Med Chem, 2022)
# Activity calls are given as the source filed them. The rule behind the calls is not given here.
# Columns and labels:
# [1] = target: T1, Peptidyl-prolyl cis-trans isomerase NIMA-interacting 1 (Homo sapiens, UniProt Q13526); assay: Covalent binding affinity to N-terminal His6-tagged human Pin1 expressed in Escherichia coli BL21 (DE3) incubated for overnight by mass spectrometry
# [2] = target: T1, Peptidyl-prolyl cis-trans isomerase NIMA-interacting 1; assay: Covalent binding affinity to Cys113 residue of N-terminal His6-tagged human Pin1 expressed in Escherichia coli BL21 (DE3) incubated for overnight followed by tryptic digestion for 16 hrs by HPLC-nESI MS/MS scan analysis
# [3] = target: T1, Peptidyl-prolyl cis-trans isomerase NIMA-interacting 1; assay: Covalent binding affinity to N-terminal His6-tagged human Pin1 expressed in Escherichia coli BL21 (DE3) assessed as increase in 292.1 Da molecular weight incubated for overnight by mass spectrometry
# [4] = target: T1, Peptidyl-prolyl cis-trans isomerase NIMA-interacting 1; assay: Displacement of 5-FITC-(Acp)-Bth-D-pThr-Pip-2-NaI-Q from N-terminal-GST-fused human Pin1 expressed in Escherichia coli BL21(DE3) incubated for 12 hrs by fluorescence polarization assay
# MDA-MB-468 [5] = assay: Antiproliferative activity against human MDA-MB-468 cells assessed as reduction in cell viability incubated for 3 days by CellTiter-Glo luminescent assay; type: functional, cell-based; settings: MDA-MB-468, 72 h
# MDA-MB-231 [6] = assay: Antiproliferative activity against human MDA-MB-231 cells assessed as reduction in cell viability incubated for 3 days by CellTiter-Glo luminescent assay; type: functional, cell-based; settings: MDA-MB-231, 72 h
# MDA-MB-468 [7] = assay: Inhibition of colony formation in human MDA-MB-468 cells at 0.63 to 10 uM incubated for 12 days with 48 hrs fresh compound replenishment by crystal violet staining based analysis; type: functional, cell-based; settings: dose 0.63-10 µM, time 12.0 day
# [8] = target: T1, Peptidyl-prolyl cis-trans isomerase NIMA-interacting 1; assay: Inhibition of Pin1 in human MDA-MB-231 cells assessed as reduction in C-MYC gene expression at 8 to 16 uM incubated for 24 hrs by qRT-PCR analysis; type: cell-based; settings: dose 8-16 µM
# MDA-MB-231 [9] = assay: Inhibition of colony formation in human MDA-MB-231 cells at 0.63 to 10 uM incubated for 12 days with 48 hrs fresh compound replenishment by crystal violet staining based analysis; type: functional, cell-based; settings: dose 0.63-10 µM, time 12.0 day
# [10] = target: T1, Peptidyl-prolyl cis-trans isomerase NIMA-interacting 1; assay: Inhibition of Pin1 in human MDA-MB-231 cells assessed as reduction in CCND1 gene expression at 8 to 16 uM incubated for 24 hrs by qRT-PCR analysis; type: cell-based; settings: dose 8-16 µM
# [11] = target: T1, Peptidyl-prolyl cis-trans isomerase NIMA-interacting 1; assay: Inhibition of Pin1 in human MDA-MB-231 cells assessed as reduction in MCL-1 gene expression at 8 to 16 uM incubated for 24 hrs by qRT-PCR analysis; type: cell-based; settings: dose 8-16 µM
# [12] = target: T1, Peptidyl-prolyl cis-trans isomerase NIMA-interacting 1; assay: Displacement of 5-FITC-(Acp)-Bth-D-pThr-Pip-2-NaI-Q from N-terminal-GST-fused human Pin1 expressed in Escherichia coli BL21(DE3) at 20 to 50 uM incubated for 12 hrs by fluorescence polarization assay; settings: dose 20-50 µM
# [13] = target: T1, Peptidyl-prolyl cis-trans isomerase NIMA-interacting 1; assay: Ratio of test compound IC50 to ZL-Pin01 IC50 for N-terminal-GST-fused human Pin1 expressed in Escherichia coli BL21(DE3) by fluorescence polarization assay
# MDA-MB-231 [14] = assay: Downregulation of MCL-1 gene expression in PIN-1 knockout human MDA-MB-231 cells at 4 to 8 uM incubated for 24 hrs by qRT-PCR analysis; type: functional, cell-based; settings: dose 4-8 µM
# [15] = test system: Peptidyl-prolyl cis-trans isomerase NIMA-interacting 1 (Homo sapiens), Q13526 [C113A]; assay: Covalent binding affinity to N-terminal His6-tagged human Pin1 C113A mutant expressed in Escherichia coli BL21(DE3) at compound:protein ratio of 3:1 to 5:1 incubated for overnight by mass spectrometry
# [16] = target: T1, Peptidyl-prolyl cis-trans isomerase NIMA-interacting 1; assay: Displacement of 5-FITC-(Acp)-Bth-D-pThr-Pip-2-NaI-Q from N-terminal-GST-fused human Pin1 expressed in Escherichia coli BL21(DE3) assessed as maximum rate of inactivation incubated for 12 hrs by fluorescence polarization assay
# MDA-MB-231 [17] = assay: Downregulation of cyclin D1 protein expression in human MDA-MB-231 cells transfected with PIN1 siRNA at 5 to 10 uM by western blot analysis; type: functional, cell-based; settings: dose 5-10 µM
# [18] = test system: Peptidyl-prolyl cis-trans isomerase NIMA-interacting 1 (Homo sapiens), Q13526 [C113A]; assay: Displacement of 5-FITC-(Acp)-Bth-D-pThr-Pip-2-NaI-Q from human Pin1 C113A mutant expressed in Escherichia coli BL21(DE3) incubated for 12 hrs by fluorescence polarization assay
# MDA-MB-231 [19] = assay: Inhibition of colony formation in human MDA-MB-231 cells at 0.25 to 4 uM incubated for 12 days with 48 hrs fresh compound replenishment by crystal violet staining based analysis; type: functional, cell-based; settings: dose 0.25-4 µM, time 12.0 day
# [20] = target: T1, Peptidyl-prolyl cis-trans isomerase NIMA-interacting 1; assay: Inhibition of Pin1 in human MDA-MB-231 cells assessed as reduction in C-MYC gene expression incubated for 24 hrs by qRT-PCR analysis; type: cell-based; settings: dose 4-8 µM
# [21] = target: T1, Peptidyl-prolyl cis-trans isomerase NIMA-interacting 1; assay: Inhibition of Pin1 in human MDA-MB-231 cells assessed as reduction in MCL-1 gene expression incubated for 24 hrs by qRT-PCR analysis; type: cell-based; settings: dose 4-8 µM
# [22] = target: T1, Peptidyl-prolyl cis-trans isomerase NIMA-interacting 1; assay: Inhibition of Pin1 in human MDA-MB-231 cells assessed as reduction in c-Myc level at 5 to 10 uM by western blot analysis; type: cell-based; settings: dose 5-10 µM
# MDA-MB-231 [23] = assay: Downregulation of C-MYC gene expression in PIN-1 knockout human MDA-MB-231 cells at 4 to 8 uM incubated for 24 hrs by qRT-PCR analysis; type: functional, cell-based; settings: dose 4-8 µM
# [24] = target: T1, Peptidyl-prolyl cis-trans isomerase NIMA-interacting 1; assay: Inhibition of Pin1 in human MDA-MB-231 cells assessed as reduction in CCND1 gene expression incubated for 24 hrs by qRT-PCR analysis; type: cell-based; settings: dose 4-8 µM
# MDA-MB-231 [25] = assay: Downregulation of c-Myc protein expression in human MDA-MB-231 cells transfected with PIN1 siRNA at 5 to 10 uM by western blot analysis; type: functional, cell-based; settings: dose 5-10 µM
# [26] = target: T1, Peptidyl-prolyl cis-trans isomerase NIMA-interacting 1; assay: Inhibition of Pin1 in human MDA-MB-231 cells assessed as reduction in MCL-1 level at 5 to 10 uM by western blot analysis; type: cell-based; settings: dose 5-10 µM
# [27] = target: T1, Peptidyl-prolyl cis-trans isomerase NIMA-interacting 1; assay: Displacement of 5-FITC-(Acp)-Bth-D-pThr-Pip-2-NaI-Q from N-terminal-GST-fused human Pin1 expressed in Escherichia coli BL21(DE3) assessed as Kinact/Ki ratio incubated for 12 hrs by fluorescence polarization assay
# Homo sapiens = organism: Homo sapiens; assay: Displacement of 5-FITC-(Acp)-Bth-D-pThr-Pip-2-NaI-Q from human Pin1 C57A mutant expressed in Escherichia coli BL21(DE3) incubated for 12 hrs by fluorescence polarization assay
# MDA-MB-468 [28] = assay: Antiproliferative activity against human MDA-MB-468 cells assessed as reduction in cell viability incubated for 8 days with 48 hrs fresh compound replenishment by CellTiter-Glo luminescent assay; type: functional, cell-based; settings: time 8.0 day
# [29] = target: T1, Peptidyl-prolyl cis-trans isomerase NIMA-interacting 1; assay: Inhibition of Pin1 in human MDA-MB-231 cells assessed as induction of Pin1 degradation incubated for 16 hrs by immunoblot analysis; type: cell-based; settings: dose 2.5-15 µM
# MDA-MB-468 [30] = assay: Inhibition of colony formation in human MDA-MB-468 cells at 0.25 to 4 uM incubated for 12 days with 48 hrs fresh compound replenishment by crystal violet staining based analysis; type: functional, cell-based; settings: dose 0.25-4 µM, time 12.0 day
# MDA-MB-231 [31] = assay: Downregulation of MCL-1 protein expression in human MDA-MB-231 cells transfected with PIN1 siRNA at 5 to 10 uM by western blot analysis; type: functional, cell-based; settings: dose 5-10 µM
# MDA-MB-231 [32] = assay: Downregulation of CCND1 gene expression in PIN-1 knockout human MDA-MB-231 cells at 4 to 8 uM incubated for 24 hrs by qRT-PCR analysis; type: functional, cell-based; settings: dose 4-8 µM
# [33] = target: T1, Peptidyl-prolyl cis-trans isomerase NIMA-interacting 1; assay: Covalent binding affinity to N-terminal His6-tagged human Pin1 expressed in Escherichia coli BL21 (DE3) assessed as increase in 418.16 Da molecular weight incubated for overnight by mass spectrometry
# [34] = target: T1, Peptidyl-prolyl cis-trans isomerase NIMA-interacting 1; assay: Inhibition of Pin1 in human MDA-MB-231 cells assessed as reduction in cyclin D1 level at 5 to 10 uM by western blot analysis; type: cell-based; settings: dose 5-10 µM
smiles,measurement,setting,value
O=C(CCl)N1CCC2(CC1)SCC(=O)N2Cc1ccco1,Activity,[1],100%
same,Activity,[2],Active
same,Activity,[3],Active
same,IC50,[4],1330 nM
same,IC50,MDA-MB-468 [5],8600 nM
same,IC50,MDA-MB-231 [6],12800 nM
same,inhibition,MDA-MB-468 [7],Active
same,inhibition,[8],Active
same,inhibition,MDA-MB-231 [9],Active
same,inhibition,[10],Active
same,inhibition,[11],Active
same,inhibition,[12],> 50%
Cc1ccc(-c2ccc(CN3C(=O)CSC34CCN(C(=O)CCl)CC4)o2)cc1,IC50,[4],270 nM
same,Ratio IC50,[13],0.2
C=CC(=O)N1CCC2(CC1)SCC(=O)N2Cc1ccc(-c2ccccc2)o1,IC50,[4],> 100000 nM
same,Ratio IC50,[13],> 10
CS(=O)(=O)c1ccc(-c2ccc(CN3C(=O)CSC34CCN(C(=O)CCl)CC4)o2)cc1,IC50,[4],360 nM
same,Ratio IC50,[13],0.27
COc1ccc(-c2ccc(CN3C(=O)CSC34CCN(C(=O)CCl)CC4)o2)cc1,IC50,[4],250 nM
same,Ratio IC50,[13],0.19
O=C(CCl)N1CCC2(CC1)SCC(=O)N2Cc1ccc(-c2cccc3ccccc23)o1,Activity,[1],100%
same,Activity,[2],Active
same,inhibition,MDA-MB-231 [14],inactive
same,IC50,[4],67 nM
same,IC50,MDA-MB-468 [5],1900 nM
same,Activity,[15],inactive
same,Kinact,[16],0.058 min⁻¹
same,inhibition,MDA-MB-231 [17],inactive
same,inhibition,[18],inactive
same,inhibition,MDA-MB-231 [19],Active
same,IC50,MDA-MB-231 [6],2800 nM
same,inhibition,[20],Dose-Dependent Effect
same,inhibition,[21],Dose-Dependent Effect
same,inhibition,[22],Active
same,inhibition,MDA-MB-231 [23],inactive
same,inhibition,[24],Dose-Dependent Effect
same,inhibition,MDA-MB-231 [25],inactive
same,Ratio IC50,[13],0.05
same,inhibition,[26],Active
same,Ratio,[27],27.1 M⁻¹ s⁻¹
same,inhibition,Homo sapiens,Active
same,Activity,MDA-MB-468 [28],Active
same,inhibition,[29],Dose-Dependent Effect
same,inhibition,MDA-MB-468 [30],Active
same,inhibition,MDA-MB-231 [31],inactive
same,inhibition,MDA-MB-231 [32],inactive
same,Activity,[33],Active
same,inhibition,[34],Active
N#Cc1ccc(-c2ccc(CN3C(=O)CSC34CCN(C(=O)CCl)CC4)o2)cc1,IC50,[4],440 nM
same,Ratio IC50,[13],0.33
CC(Cl)C(=O)N1CCC2(CC1)SCC(=O)N2Cc1ccc(-c2ccccc2)o1 (centres undefined),IC50,[4],> 100000 nM
same,Ratio IC50,[13],> 10
O=C(CCl)N1CCC2(CC1)SCC(=O)N2Cc1ccc(Cl)o1,IC50,[4],560 nM
same,Ratio IC50,[13],0.42
CC(=O)N1CCC2(CC1)SCC(=O)N2Cc1ccc(-c2cccc3ccccc23)o1,IC50,[4],> 100000 nM
same,Ratio IC50,[13],> 10
O=C(CCl)N1CCC2(CC1)SCC(=O)N2Cc1ccc(Br)o1,IC50,[4],610 nM
same,Ratio IC50,[13],0.46
O=C(CCl)N1CCC2(CC1)SCC(=O)N2Cc1ccccc1,inhibition,[12],> 50%
Cc1cccc(N2C(=O)CSC23CCN(C(=O)CCl)CC3)c1,inhibition,[12],> 50%
O=C(CCl)N1CCC2(CC1)SCC(=O)N2Cc1ccc(-c2ccc(C(F)(F)F)cc2)o1,IC50,[4],720 nM
same,Ratio IC50,[13],0.54
O=C(CCl)N1CCC2(CC1)SCC(=O)N2Cc1ccc(-c2ccc(-c3ccccc3)cc2)o1,IC50,[4],1320 nM
same,Ratio IC50,[13],1
O=C(CCl)N1CCC2(CC1)SCC(=O)N2Cc1ccc(-c2ccccc2)o1,IC50,[4],260 nM
same,Ratio IC50,[13],0.2
CC(=O)N1CCC2(CC1)SCC(=O)N2Cc1ccco1,IC50,[4],> 100000 nM
same,Ratio IC50,[13],> 10
O=C(CCl)N1CCC2(CC1)SCC(=O)N2CCc1ccc(-c2ccccc2)o1,IC50,[4],1060 nM
same,Ratio IC50,[13],0.8
Cc1ccc(N2C(=O)CSC23CCN(C(=O)CCl)CC3)cc1,inhibition,[12],> 50%
O=C(CCl)N1CCC2(CC1)SCC(=O)N2c1ccc(Cl)cc1,inhibition,[12],> 50%
O=C(CCl)N1CCC2(CC1)SCC(=O)N2Cc1ccc(-c2ccc3ccccc3c2)o1,IC50,[4],380 nM
same,Ratio IC50,[13],0.29
